What was measured:
[1] = Water solubility noted at synthesis; format: physicochemical; details: noted for the isolated crystal
Method: 3.58 g of 3-methyl-1-phenyl-5-pyrazolone (hereinafter also referred to as “edaravone”), 2.59 g of malonaldehyde dianilide hydrochloride, and 20 ml of ethanol were added to a reactor and dissolved. To the obtained solution, 2.04 g of triethylamine and 0.4 ml of water were added and stirred for 1 hour at room temperature (about 25° C.; hereinafter, the same applies). After the stirring, the resultant was further reacted for 1 hour at 50° C. After discharging the obtained reaction solution to 100 ml of 1N hydrochloric acid, the mixture was sufficiently stirred and the precipitate was filtered. The resulting cake was washed with water. The cake was added to 200 ml of an aqueous sodium hydroxide solution having a 1% by weight concentration and completely dissolved by heating with stirring. Next, the dissolved solution was stirred for 3 hours after cooling to room temperature. Then, the liquid containing the obtained precipitate was filtered, and then the cake was washed with water. […] Note that the melting point of ED2AP was 249° C., which was water-soluble.
3 ml of dimethylformamide was added to a reactor and the exterior of the reactor was cooled with ice water. 1.75 g of phosphorus oxychloride was slowly dropped into the reactor (Reaction Solution A). In another reactor, 1.78 g of edaravone was dissolved in 5 ml of dimethylformamide (Reaction Solution B). […]

[2] = test system: superoxide produced by the neutrophils; test: Superoxide production amount of PMA-stimulated neutrophils, CLA chemiluminescence; format: cell-based, human; details: 0-200 or 0-5,000 μmol/1, PMA 100 ng/ml, 30 minutes, control being 100, FIG. 2
Method: For examining the reactive oxygen-eliminating effect of the vasodilator of the present invention, the superoxide produced by the neutrophils when the neutrophils isolated from the peripheral blood of healthy individuals were stimulated with PMA (phorbor-12-myristate-13-acetate) was used. The superoxide production amount was measured by chemiluminescence using CLA (2-methyl-6-phenyl-3, 7-dihydroimidazo[1,2-α]pyrazine-3-one).
First, ED2AP, BisEp-C3, edaravone, BisEp-C1, or BisEp-C1 (H2) was added to a neutrophil of 4×10^5 cells per sample so as to achieve a predetermined concentration (0, 12.5, 25, 50, 100, or 200 μmol/1, or 0, 125, 250, 500, 1,250, 2,500 or 5,000 μmol/1) with […] of CLA, and then the cell suspension was seeded in flat-bottomed 96-well plates. The volume of the suspension was 200 μl/well, and phenol red-free Ca+, Mg+ HBSS was used as the solution. […] After the stimulation, a plate reader (Envision 2104 Multilabel Reader produced by Perkin Elmer Co., Ltd.) was used to measure the chemiluminescence value over time for 30 minutes with the PMA stimulation time being a reference. […] In addition, as a control, the superoxide production amount was measured in the same manner except that each compound was not added. The relative value of the superoxide production amount when each compound was added was calculated with the superoxide production amount of the control being 100.

[3] = test system: rat neuroid cells B50; test: Cytoprotection against singlet oxygen (Rose Bengal + G-LED), Alamar Blue fluorescence; format: cell-based; details: 0, 12.5, 25, 50, or 100 μmol/1, RB 200 nmol/1 + G-LED 5 minutes, negative control being 100, FIG. 3
Method: Edaravone, ED2AP and BisEp-C3 were examined for whether they had the function of alleviating neuronopathy. Specifically, singlet oxygen was generated by combining Rose Bengal (RB), which is a sensitizer, with green light (G-LED), and the function of alleviating the cytotoxicity of the generated singlet oxygen was examined with the cellular activity being an indicator.
First, rat neuroid cells B50 were cultured in 12-well dishes at 2×10^5 cells/well (medium: RPMI-1640 medium containing 5% FCS) overnight. After the culturing, the medium of each well was replaced with HBSS (1,000 μl/well; phenol red-free Ca+, Mg+) containing 200 nmol/1 RB and edaravone, ED2AP, or BisEp-C3 having a predetermined concentration (0, 12.5, 25, 50, or 100 μmol/1). The dish was then irradiated with G-LED for 5 minutes to generate singlet oxygen. Thereafter, the medium of each well was replaced with 1,000 μl of HBSS, and Alamar Blue was added. The dish was then allowed to react for about 2 hours in an incubator at 37° C. and 5%CO2. After the reaction, fluorescence intensity (excitation wavelength: λ- 560 nm, fluorescence wavelength: λ-595 nm) was measured with a plate reader (infinite200, Tecan Trading AG). In this experimental system, the higher the cellular activity, the more Alamar Blue is taken up and the higher the fluorescence intensity. As a control, fluorescence intensity was measured in the same manner except that sodium azide (Azide, NaN3) was added instead of the compounds so as to achieve a concentration of 4 mmol/1. As a negative control (NC), fluorescence intensity was measured in the same manner except that RB was not added. The relative value of the fluorescence intensity in the sample to which each compound was added was calculated with the fluorescence intensity of the negative control being 100.

With CCN1N=C(C)/C(=C\C=C\c2c(C)nn(CC)c2O)C1=O [BisEp-C3, 2,4-dihydro-4-[3-(1-ethyl-5-hydroxy-3-methyl-1H-pyrazol-4-yl)-2-propen-1-ylidene]-2-ethyl-5-methyl-3H-pyrazol-3-one] the solubility in water [1] was “water-soluble”, the “relative value of the superoxide production amount” value [2] was “remarkably suppressed superoxide production amount” and the “relative value of the fluorescence intensity” value [3] was “recovered in a concentration-dependent manner”.
With CC1=NN(c2ccccc2)C(=O)/C1=C/C=C/c1c(C)nn(-c2ccccc2)c1O [ED2AP, 2,4-dihydro-4-[3-(5-hydroxy-3-methyl-1-phenyl-1H-pyrazol-4-yl)-2-propen-1-ylidene]-5-methyl-2-phenyl-3H-pyrazol-3-one] the solubility in water [1] was “water-soluble”, the “relative value of the superoxide production amount” value [2] was “remarkably suppressed superoxide production amount” and the “relative value of the fluorescence intensity” value [3] was “recovered in a concentration-dependent manner”.

From US12569470B2, “Vasodilator and use thereof” (Bioradical Research Institute Corp., priority 2019, dated 2026)
